One block for each compound: values may come before it.
Assays:
L. casei (S1) = assay: Encapsulation efficiency into bacteria by vacuum infusion; format: physicochemical, Lactobacillus casei; details: vacuum infused, 35% ethanol
inactivated yeast = assay: Encapsulation of bioactives into inactivated yeast cells (conventional diffusion, vacuum infusion, pressure); format: physicochemical, Saccharomyces cerevisiae
From the text: Prior to encapsulation of bioactives, selected strains of both yeast and algal cells are inactivated with a chemical treatment. Chemical inactivation of yeast or algal cells stops the metabolic processes while preserving the structure and chemical composition of the cells. […] The concentration of ethanol is selected based on the results of the previous study. Briefly, 1 gm of yeast or algal cells pellet is suspended in the 35% ethanolic solution of the selected bioactive compound. […] We have determined the % ethanol to achieve sufficient encapsulation of the selected encapsulated bioactive compounds using both the vacuum and high pressure assisted encapsulation process. Yeast or algal cell samples suspended in the ethanolic solution with the bioactive compound are sealed in boilable vacuum bags (Prime Source) at 99% vacuum (Ultravac 250, Koch Equipment LLC). […] The sealed samples are covered with aluminum foil to prevent any photo-degradation of the bioactives and incubated at room temperature (25° C.) for 10 minutes. Samples are emptied into 50 mL centrifuge tubes, centrifuged at 2200 rpm for 10 minutes to pellet the cells and the pelleted cells are washed twice with ethanolic solution (35%) and then five times with excess water to remove unencapsulated bioactives. […] Samples are emptied into 50 mL centrifuge tubes, centrifuged to pellet the cells (2200 rpm for 10 minutes) and the pelleted cells are washed twice with ethanolic solution (35%) and then five times with excess water to remove unencapsulated bioactives. Briefly, yeast or algal samples in a 35% ethanolic solution of the selected bioactive compound are covered with a single layer of aluminum foil to prevent photolysis. Samples are then placed into a rotary incubator at 50° C. and 200 rpm for 24 hours. After removal from the incubator, cells are removed by centrifugation at 2000 rpm for 10 minutes. The supernatant is decanted to isolate the pelleted cells and the pelleted cells are washed as described above to remove unencapsulated bioactives. Cells are sonicated to disrupt the cellular structure. A methanol extraction is utilized to extract the encapsulated bioactives from the disrupted yeast or algal cells. 0.05 g of cells (wet basis) with encapsulated bioactives are sonicated to disrupt cellular structure and subsequently incubated with 1 mL methanol. Samples are then briefly vortexed and centrifuged at 14,000 rpm for 10 minutes. The concentration of bioactive compound dissolved in the organic phase is measured using UV-vis spectrophotometer. […] Measuring loading of these bioactive compounds in various emulsions and nanoparticles has been described. The encapsulation efficiency is determined as follows: [formula] where CE is the mass of extracted bioactive from the cells after encapsulation and CT is the amount of bioactive initially added to the cells. We have developed an innovative bioencapsulation process that provides rapid and efficient infusion of bioactives in isolated cells and lipid bodies. In this process, yeast or algal cells incubated in a solution containing bioactive were subjected to a vacuum (97% vacuum) or mild-high hydrostatic pressure (35-100 MPa) for ˜5-10 minutes. […] The results of these measurements were compared with the conventional process used for encapsulation of bioactive compounds in yeast cells.

E. coli (BL21) = assay: Encapsulation efficiency into bacteria by vacuum infusion; format: physicochemical; details: vacuum infused, 35% ethanol
porcine skin = assay: Nile Red release from yeast encapsulation system into porcine skin; details: yeast microcapsules loaded with Nile Red; room temperature, 12 hours
Protocol: The Nile Red fluorescence signal contrast of porcine skin incubated with yeast encapsulation system and non-incubated porcine skin was evaluated. Yeast microcapsules were loaded with Nile Red dye and spread on porcine skin surface. After incubation at room temperature for 12 hours, fluorescence images were taken on the 20 μm-thick slice of tissue cross-section. The results are depicted in FIG. 17. […] This encapsulation system thus provides an option for convenient, pain-free and efficient compound delivery, which can be self-administered and operate as an alternative to oral dosing or injections.

[1] = Storage stability of encapsulated retinol at room temperature, exposure to atmospheric oxygen; format: physicochemical; details: cell-based encapsulants / lipid membrane microcapsules
From the text: FIG. 10 illustrates stability of retinol encapsulated yeast cells as compared to retinol in emulsion and nanoparticles at room temperature. Stability of all-trans retinol encapsulated in casein stabilized emulsion, zein nanoparticles and yeast cells. The percent recovery of retinol in model systems after exposure to atmospheric oxygen is shown. Yeast cells provided the most stability to retinol, nearly 100% up to 5 days, while zein and casein systems have <10% after 4 days.
Retinol was selected as a model bioactive as it is highly susceptible to oxidative degradation at room temperature.

[2] = Thermal stability of retinol, cell encapsulated versus emulsions; format: physicochemical; details: vacuum and/or HPP infusion methods, compared to emulsions
Protocol: Comparative percent recovery of retinol in emulsions and yeast after processing at 70° C. for 30 minutes. The retinol was extracted using methanol and the absorbance was measured at 325 nm.

[3] = 100 mM PBS, pH = 6.5, Conventional Diffusion, saturated solution, 35% v/v ethanol
[4] = 100 mM PBS, pH = 6.5, HPP (200 MPa), saturated solution, 35% v/v ethanol
[5] = 100 mM PBS, pH = 6.5, Vacuum Infusion, saturated solution, 35% v/v ethanol
[6] = 2% Tween 20 in 100 mM Tris Buffer, pH = 8, Conventional Diffusion, saturated solution, 35% v/v ethanol
[7] = 2% Tween 20 in 100 mM Tris Buffer, pH = 8, HPP (200 MPa), saturated solution, 35% v/v ethanol
[8] = 2% Tween 20 in 100 mM Tris Buffer, pH = 8, Vacuum Infusion, saturated solution, 35% v/v ethanol
[9] = Conventional Diffusion, Single Loading
[10] = Vacuum, Dual Loading (curcumin and fisetin added together)
[11] = commercial yeast, 1 vacuum cycle, 35% ethanol
[12] = commercial yeast, 3 cycles of 99% vacuum, 5 min incubation between, no additional fisetin added
[13] = inactivated yeast, Conventional Methods, 24 hours, 50° C.
[14] = inactivated yeast, Mild Pressure (35 Mpa), 10 minutes
[15] = inactivated yeast, Vacuum (5 minutes)

Encapsulation Efficiency (L. casei (S1)): 43.2%
Mass of Encapsulated Bioactive in Bacteria (L. casei (S1)): 2.271 mg/g
Encapsulation Efficiency (inactivated yeast; [3]): 42.6%
Mass of Encapsulated Bioactive in Yeast (inactivated yeast; [3]): 1.11 mg/g
Encapsulation Efficiency (inactivated yeast; [4]): 99.3%
Mass of Encapsulated Bioactive in Yeast (inactivated yeast; [4]): 2.59 mg/g
Encapsulation Efficiency (inactivated yeast; [5]): 105.3%
Mass of Encapsulated Bioactive in Yeast (inactivated yeast; [5]): 2.75 mg/g
Encapsulation Efficiency (inactivated yeast; [6]): 58.7%
Mass of Encapsulated Bioactive in Yeast (inactivated yeast; [6]): 2.31 mg/g
Encapsulation Efficiency (inactivated yeast; [7]): 54.8%
Mass of Encapsulated Bioactive in Yeast (inactivated yeast; [7]): 2.16 mg/g
Encapsulation Efficiency (inactivated yeast; [8]): 80.7%
Mass of Encapsulated Bioactive in Yeast (inactivated yeast; [8]): 3.18 mg/g
Encapsulation Efficiency (inactivated yeast; [9]): 12.2%
Mass of Encapsulated Bioactive in Yeast (inactivated yeast; [9]): 0.061 mg/g
Encapsulation Efficiency (inactivated yeast; [10]): 96.0%
Mass of Encapsulated Bioactive in Yeast (inactivated yeast; [10]): 0.480 mg/g
Encapsulated Efficiency (inactivated yeast; [11]): 69.5%
Mass of Encapsulated Bioactive in Yeast (inactivated yeast; [11]): 3.65 mg/g
Encapsulated Efficiency (inactivated yeast; [12]): 76.4%
Mass of Encapsulated Bioactive in Yeast (inactivated yeast; [12]): 4.01 mg/g
encapsulation efficiency (percent ratio of encapsulated bioactive with respect to total bioactive in solution) (inactivated yeast; [13]): 11%
encapsulation efficiency (percent ratio of encapsulated bioactive with respect to total bioactive in solution) (inactivated yeast; [14]): 68%
encapsulation efficiency (percent ratio of encapsulated bioactive with respect to total bioactive in solution) (inactivated yeast; [15]): 64%
encapsulation efficiency relative to conventional diffusion techniques (inactivated yeast; inactivated yeast, vacuum or HPP): 1.4-2.3 ×
Encapsulation Efficiency (E. coli (BL21)): 30.8%
Mass of Encapsulated Bioactive in Bacteria (E. coli (BL21)): 1.619 mg/g
SMILES: O=c1c(O)c(-c2ccc(O)c(O)c2)oc2cc(O)ccc12 [Fisetin, fisetin]

SMILES: CCN(CC)c1ccc2nc3c4ccccc4c(=O)cc-3oc2c1 [Nile Red]
release and permeation into porcine skin (porcine skin): effectively released from yeast cells, further permeated crossing the stratum corneum and reached the dermis layer

encapsulation efficiency (percent ratio of encapsulated bioactive with respect to total bioactive in solution) (inactivated yeast; [13]): 15%
encapsulation efficiency (percent ratio of encapsulated bioactive with respect to total bioactive in solution) (inactivated yeast; [14]): 70%
encapsulation efficiency (percent ratio of encapsulated bioactive with respect to total bioactive in solution) (inactivated yeast; [15]): 45%
improvement of storage stability as compared to other encapsulation systems, including nanoparticles and emulsions [1]: at least 5 fold
reduction of loss of retinol during thermal processing [2]: 25-30%
SMILES: CC1=C(/C=C/C(C)=C/C=C/C(C)=C/CO)C(C)(C)CCC1 [Retinol, retinol]

From patent publication US10864168B2, “Bioactive delivery vehicles” (The Regents of the University of California, priority 2014, dated 2020)
